Like-named read-outs stand apart in the source and are kept apart here.
Tests used:
PC3 xenograft = type: in vivo
pS6 [1] = test: Tumor pS6 after single dose of Compound 6 (PK/PD); type: in vivo, mice; settings: for inhibition at 30 mg/kg: Mus musculus, 30 mg/kg single dose
Oral bioavailability = test: Oral bioavailability; design: species or system rodent; settings: in vivo
249 kinases = test: Single point kinase selectivity assay against 249 kinases; type: biochemical; settings: 10 μM
FMS = FMS (Homo sapiens, UniProt P07333); test: FMS concentration-response curve; type: biochemical
pAktS473 [2] = test: Tumor pAktS473 after single dose of Compound 6 (PK/PD); type: in vivo, mice; settings: Mus musculus, 30 mg/kg single dose
[3] = Compound 6 plasma and tumor levels (PK/PD); type: in vivo, mice; settings: 30 mg/kg single dose, by 24 h
[4] = system: PC3 prostate cancer cell lines; test: PC3 cellular activity: proliferation; settings: Homo sapiens, PC-3, read-out: PC3 Cellular Activity Prolif IC50
pS6 [5] = test: PC3 cellular activity: pS6 (mTORC1) inhibition; type: cell-based; settings: Homo sapiens, PC-3; average of 2 or more experiments
mTOR = mTOR (Homo sapiens, UniProt P42345); test: mTOR inhibition (Table 3); type: biochemical; settings: average of 2 or more experiments
pAktS473 [6] = test: PC3 cellular activity: pAktS473 (mTORC2) inhibition; type: cell-based; settings: Homo sapiens, PC-3; average of 2 or more experiments; read-out: PC3 Cellular Activity pAkt IC50
Akt(S473) = test: Phospho-Akt(S473) in PC3 cell lysates, MSD; type: cell-based, human; settings: PC3 cells, data not shown
Text: (§1) The direct substrate for TORC1 was 4E-BP 1(T46) and indirect downstream substrate was S6RP(S235/S236). The direct substrate for TORC2 was Akt(S473) and indirect downstream substrates measured were GSK3β(S9) and PRAS40(T246). Additionally, the phosphorylation status of Akt(T308), a phosphorylation site for PDK1 was monitored.
(§2) MSD® biomarker detection assays provide a rapid and convenient method for measuring the total and phosphorylated levels of protein targets within a single small volume sample. These assays are available in both single-plex and multiplex formats. In a single-plex assay, an antibody for a specific protein target is coated on one electrode (or spot) per well. […] MSD Read Buffer that provides the appropriate chemical environment for ECL is added and the plate is read using an MSD SECTOR™ Imager. […] The instrument measures intensity of the emitted light to afford a quantitative measure of the amount of phosphorylated Akt or S6RP present in the sample. […]
(§3) The assay plate was incubated with 150 μL of MSD Blocker A Solution for 1 hour with shaking at room temperature. […] Then 150 μL of 1×MSD Read Buffer T was added to each well. The plate was read on the SECTOR Imager plate reader. The Excel data was transferred to Activity Base and IC50 values were calculated.
(§4) All data was analyzed using XLfit from IDBS. […]

[7] = Body weight in Compound 1 PC3 xenograft efficacy studies; type: in vivo, SCID mice; settings: rapamycin 4 mg/kg, 3 weeks, data not shown
Experimental: The BID dose groups were dosed with a 10-hour separation between the morning and evening doses. […] At the end of each study, plasma and/or tumor samples were collected.
Initial body weights were recorded prior to the initiation of treatment using a digital scale. The percent body weight change during the course of the study was calculated using initial body weight measurements. Body weights of each animal were measured twice a week at the same time that tumor measurements were taken. Body weights were measured more frequently if significant decreases were noted during the course of the study.

S6RP(S235/S236) = test: Phospho-S6RP(S235/S236) in PC3 cell lysates, MSD; type: cell-based, human; settings: Homo sapiens, PC-3, 1 h, PC3 cells, 1 hour; two values; read-out: IC50 for inhibition of S6RP(S235/S236) phosphorylation
Text: as §1, §2, §3, §4

4E-BP1(T46) = test: Phospho-4E-BP1(T46) in PC3 cell lysates, Luminex multiplex; type: cell-based, human; settings: PC3 cells, up to concentrations of 10 μM
Text: as §1
The multiplex Luminex assay format differs from conventional enzyme-linked immunosorbent assay (ELISA) in that the multiplex capture antibody is attached to a polystyrene bead whereas the ELISA capture antibody is attached to the microplate well. The use of the suspension bead-based technology enables the multiplexing capabilities of the Luminex assays. The xMAP® technology uses 5.6 micron polystyrene microspheres, which are internally dyed with red and infrared fluorophores of differing intensities. Each bead is given a unique number, or bead region, allowing differentiation of one bead from another. Beads covalently bound to different specific antibodies can be mixed in the same assay, utilizing a 96-well microplate format. At the completion of the sandwich immunoassay, beads can be read, using the Luminex 100™ or Luminex 200 detection system, in single-file by dual lasers for classification and quantification of each analyte. […]

Chain of FMS (P07333 20-972, species assumed): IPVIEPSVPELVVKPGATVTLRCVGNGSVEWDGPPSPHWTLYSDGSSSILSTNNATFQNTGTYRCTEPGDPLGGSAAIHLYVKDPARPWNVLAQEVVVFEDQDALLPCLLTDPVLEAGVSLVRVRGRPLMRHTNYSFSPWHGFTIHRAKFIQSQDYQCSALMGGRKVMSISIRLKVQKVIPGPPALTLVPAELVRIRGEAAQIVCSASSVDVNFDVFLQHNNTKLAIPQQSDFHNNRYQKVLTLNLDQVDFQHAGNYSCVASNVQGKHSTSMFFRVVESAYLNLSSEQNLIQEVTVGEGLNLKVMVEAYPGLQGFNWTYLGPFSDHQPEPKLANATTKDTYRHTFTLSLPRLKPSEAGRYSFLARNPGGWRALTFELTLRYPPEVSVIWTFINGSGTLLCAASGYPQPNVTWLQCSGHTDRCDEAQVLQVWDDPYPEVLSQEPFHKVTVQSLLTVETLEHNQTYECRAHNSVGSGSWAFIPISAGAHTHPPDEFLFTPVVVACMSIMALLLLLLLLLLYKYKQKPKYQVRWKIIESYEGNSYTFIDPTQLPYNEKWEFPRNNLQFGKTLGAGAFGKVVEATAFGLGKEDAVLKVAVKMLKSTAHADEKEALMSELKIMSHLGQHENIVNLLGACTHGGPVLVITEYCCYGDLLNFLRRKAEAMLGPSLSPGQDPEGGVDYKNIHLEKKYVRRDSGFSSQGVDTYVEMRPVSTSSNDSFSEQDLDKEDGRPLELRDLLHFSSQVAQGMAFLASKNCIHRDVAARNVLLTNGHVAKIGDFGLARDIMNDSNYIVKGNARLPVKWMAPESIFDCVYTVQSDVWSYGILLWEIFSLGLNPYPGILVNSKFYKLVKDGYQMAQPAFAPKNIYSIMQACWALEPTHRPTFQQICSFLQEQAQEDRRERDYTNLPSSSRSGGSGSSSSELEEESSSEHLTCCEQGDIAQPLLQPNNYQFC

CC(C)(O)c1ccc(-c2cnc3c(n2)N(CC2CCOCC2)CC(=O)N3)cn1 [Compound 6]
tumor volume inhibition compared to vehicle control (PC3 xenograft; 10 mg/kg oral once daily): 18% | tumor volume inhibition compared to vehicle control (PC3 xenograft; 25 mg/kg oral once daily): 63% | tumor volume inhibition compared to vehicle control (PC3 xenograft; 50 mg/kg oral once daily): 84% | tolerability (PC3 xenograft; all dose levels and schedules, 3 weeks of treatment): well tolerated | PC3 tumor growth (PC3 xenograft; oral, once or twice daily or every second day): significantly inhibited PC3 tumor growth | biomarker (pS6, pAktS473) inhibition in tumor (pS6 [1]; 100 mg/kg single dose, through 24 hours): full biomarker inhibition | inhibition at 30 mg/kg (pS6 [1]; 2-8 h): 87 to 93% | inhibition at 30 mg/kg (pS6 [1]; 24 h): 43% | oral bioavailability (Oral bioavailability): excellent oral bioavailablity | kinases other than mTOR inhibited >80% (249 kinases): only one kinase other than mTOR was inhibited >80% | IC50 (FMS): 2700 nM | inhibition at 30 mg/kg (pAktS473 [2]; 2-8 h): 53 to 77% | inhibition at 30 mg/kg (pAktS473 [2]; 24 h): 28% | plasma and tumor level of compound [3]: almost completely cleared

CC(C)(O)c1ccc(-c2cnc3[nH]c(=O)n(CC4CCOCC4)c3n2)cn1 [Compound 5]
IC50 [4]: 4180 nM | IC50 (pS6 [5]): 2410 nM | IC50 (mTOR): 176 nM | IC50 (pAktS473 [6]): 2550 nM

O=c1[nH]c2ncc(-c3ccc(-c4nc[nH]n4)cc3)nc2n1CCC1CCOCC1 [Compound 3]
oral bioavailability (Oral bioavailability): poor oral bioavailability | IC50 [4]: 224 nM | IC50 (pS6 [5]): 40 nM | IC50 (mTOR): 2 nM | IC50 (pAktS473 [6]): 18 nM

O=C1CN(CCC2CCOCC2)c2nc(-c3ccc(-c4nc[nH]n4)cc3)cnc2N1 [Compound 4]
oral bioavailability (Oral bioavailability): poor oral bioavailability | IC50 [4]: 148 nM

CO[C@H]1C[C@@H]2CC[C@@H](C)[C@@](O)(O2)C(=O)C(=O)N2CCCC[C@H]2C(=O)O[C@H]([C@H](C)C[C@@H]2CC[C@@H](O)[C@H](OC)C2)CC(=O)[C@H](C)/C=C(\C)[C@@H](O)[C@@H](OC)C(=O)[C@H](C)C[C@H](C)/C=C/C=C/C=C/1C [rapamycin, reference compound]
inhibition of Akt(S473) phosphorylation (Akt(S473)): did not inhibit | change in body weight [7]: No significant change | IC50 (S6RP(S235/S236)): 0.019 nM | inhibition of 4E-BP1(T46) phosphorylation (4E-BP1(T46)): not inhibited
